Laboratory results from a melting point compilation (Tetko et al.; mined from patent text by program, amines drawn as free bases though some values may be those of a salt).

Row | melting point [°C] | Compound
1 | 214 to 216 | O=C(O)c1cc(-c2ccccc2)ccc1O
2 | 163 to 164 | COc1ccc2c(c1)C(C)(N)C(=O)N2c1ccc(F)cc1 (stereo not given)
3 | 96 to 99 | CS(=O)(=O)N(CCc1ccc(Cl)cc1)Cc1ccncc1
4 | 235 to 239 | COc1ccc2c(c1C)CCc1ccc(-c3cccnc3)cc1C21N=C(N)N(C)C1=O (stereo not given)
5 | 91 to 93 | CCCCCCNC(=O)OC1CCN(C(=O)Oc2ccc(Oc3ccc(OC)cc3)cc2)CC1
6 | 126 to 128 | CCCCOP(=O)(CCCC1(c2ccccn2)c2ccccc2-c2ccccc21)OCCCC
7 | 188 | NS(=O)(=O)c1ccc(-c2ccccc2-c2ccc(C(F)(F)F)cc2)cc1
8 | 212 to 214 | CCOC(=O)c1c(Nc2ccncc2)c2ccc(Cl)cc2n1CC(=O)N(CC)CC
9 | 125 to 127 | NC(=O)C1CCc2ccccc2O1 (stereo not given)
10 | 51 to 54 | COC(=O)CC(=O)NCc1ccccc1
11 | 159 to 160 | NC(=O)N(O)C/C=C/c1cccc(C2=NOC(c3ccc(F)cc3)C2)c1 (stereo not given)
12 | 116 to 117 | COc1ccc(NC(=O)c2ccccc2N)cc1
13 | 100 to 101 | c1ccc(CN2CC3OC(c4ccccc4)(C2)c2ccccc23)cc1 (stereo not given)
14 | 111 to 113 | CC(=O)c1c(O)cccc1OCC(O)COc1ccc(F)cc1 (stereo not given)
15 | 72 to 75 | CC/C=C/CNc1cccc(-c2ccnc3c(C(=O)c4cccs4)cnn23)c1
16 | 66 | COC(=O)CCNC(=O)C(=Cc1ccccc1)CSC(=O)c1ccccc1
17 | 157 to 158 | O=C(O)C(=O)c1ccc(S(=O)CCOc2ccc3ccccc3c2)cc1 (stereo not given)
18 | 107 | COC(=O)c1ccc(C(=O)N(C)C)cc1
19 | 215 to 218 | O=C(O)c1c[nH]c2c(-c3ccncc3)c(-c3ccc(F)cc3)nn2c1=O
20 | 160 to 163 | O=S1N=C(NCCCN(Cc2ccc(F)cc2)c2ccccn2)C(NCc2ccncc2)=N1 (stereo not given)
21 | 146 to 147 | Cc1oc(-c2ccc(C(F)(F)F)cc2)nc1COc1ccc(CN(O)C(N)=O)cc1
22 | 142 to 144 | N#Cc1ccc(C(=O)NC(=S)NCCc2ccccc2)cc1
23 | 244 | CCCCc1nc(SC)c(C(=O)OCC)n1Cc1ccc(-c2ccc(S(=O)(=O)NC#N)cc2)cc1
24 | 263 | CC(C)S(=O)(=O)Nc1ccc2c(=O)c3c(sc2c1)CC(C)(C)CC3
25 | 91 to 92 | COC(=O)[C@H]1Cc2c([nH]c3ccccc23)[C@@H](c2ccc3occc3c2)N1C(=O)[C@H](C)NC(=O)OCc1ccccc1
26 | 179 to 181 | O=C(CCC1CCN(C(=O)OCc2ccc([N+](=O)[O-])cc2)CC1)c1ccc2c(c1)CN1C(=O)c3ccccc3C1CC2 (stereo not given)
27 | 54 to 56 | COc1cccc(CCOc2ccc(C(=O)N/C(=C\c3ccc(Cl)cc3)C(=O)NCCO)cc2)c1
28 | 202 to 207 | O=S(=O)(c1ccccc1)c1c[nH]c2cccc(Br)c12

Row | melting point [°C] | Compound
29 | 87 to 89 | COC(=O)[C@H]1C=C(C2CCCCC2)OC(=O)[C@H]1Cc1ccccc1
30 | 145 to 147 | CS(=O)(=O)Nc1ccc(C(=O)c2ccccc2)cc1
31 | 170 to 172 | Nc1cc(CCC(=O)N(c2ccccc2)c2ccccc2)ccc1O
32 | 164 to 165 | CCOC(=O)C(C)=CNc1ccc2ccccc2n1
33 | 164 to 165 | O=CNc1ccc(OCCNCC(O)c2ccc(O)cc2)cc1 (stereo not given)
34 | 150 to 152 | O=C(O)CCC(=NO)c1ccc(-c2ccccc2F)cc1
35 | 205 to 208 | COc1ccc([C@H]2Cc3c(cccc3C(F)(F)F)NC(=O)[C@H]2O)cc1 (relative stereo)
36 | 202 to 203 | CCOC(=O)c1cc2cc(NC(C)=O)ccc2[nH]1
37 | 202 to 205 | Cc1ccc(Sc2cncc3sc(C(=O)NC=NN)cc23)cc1
38 | 133 to 136 | CC(Sc1nc(Cl)cc(NCc2ccc(Cl)cc2)n1)C(=O)O (stereo not given)
39 | 182 to 184 | CCCCCC(=O)ONC(=N)c1ccc(NC(=O)CCCC(=O)Nc2ccc(C(=N)NOC(=O)CCCCC)cc2)cc1
40 | 160 to 161 | CS(=O)(=O)c1ccc(-c2cnn(CC(=O)c3ccc(OC(F)(F)F)cc3)c(=O)c2-c2ccc(F)cc2)cc1
41 | 198 | O=C(Nc1ccc(Br)cc1)Oc1ccc2c(c1)CCCN2
42 | 123 | CC12CCC(C1)C1(C)Oc3ccc(C(O)COc4ccc(C(=O)O)cc4)cc3C21C (stereo not given)
43 | 120 | COc1ccc(C(=O)c2cc(Br)ccc2N)cc1
44 | 154 to 155 | Cc1nc2c(O[C@@H]3c4ccccc4CC[C@H]3O)cccn2c1CC#N (relative stereo)
45 | 109 to 111 | CC(C)(C)OC(=O)C1=C(c2ccccc2)C(c2ccccc2)OC1=O (stereo not given)
46 | 172 | Cc1ccc(-c2cc(OCC(=O)N3CCOCC3)c3c(C(F)(F)F)cccc3n2)cc1
47 | 161 to 164 | Cc1ncsc1C(=O)Nc1ccc(-n2nc(C(F)(F)F)c(Cl)c2C2CC2)cc1
48 | 84 to 85 | CCCCNC(=O)Nc1ccccc1C(=O)OC
49 | 110 to 111 | Cc1cc(-c2ccccc2)n2nc(SCc3ccccc3)nc2n1
50 | 90 to 91 | COc1cc(CCC2OCCO2)ccc1OCc1nc(-c2ccccc2)oc1C
51 | 173 to 176 | Cc1ccc(S(=O)(=O)NC(=O)OCCc2ccc(-n3c(C(C)C)nc4cc(C(=O)N(C)C)c(Cl)cc43)cc2)cc1
52 | 110 | CCOC(=O)c1ccc(NC=Nc2ccc3[nH]cc(CCN4C(=O)c5ccccc5C4=O)c3c2)cc1
53 | 178 to 181 | COC(=O)C12COc3cc(F)ccc3N1N=C(C(=O)Nc1ccc(C(F)(F)F)cc1)C2 (stereo not given)
54 | 143 to 146 | CON1C(C)(C)CC(OC(=O)C2=C(c3ccccc3)C(c3ccccc3)OC2=O)CC1(C)C (stereo not given)
55 | 80 to 81.5 | CCNC(=O)NC(=O)Nc1ccccc1

The remaining lines, values behind:

Row | Compound | melting point [°C]
56 | CC=C1CCC2C3CCC4CC(O)C(OCC)CC4(C)C3C(N)CC12C (stereo not given) | 65 to 70
57 | CC1Nc2ccc(-c3csc(C#N)c3)cc2C2(CCCCC2)O1 (stereo not given) | 111 to 112
58 | CCCCOP(=O)(C/C=C/CC1(C(=O)NCCC)c2cc(F)ccc2-c2ccc(F)cc21)OCCCC | 142 to 146
59 | CCOC(=O)c1cc2nc(C)nc-2[nH]c1C(=O)OCC | 164 to 165
60 | COc1ccc2cc([C@H](C)C(=O)OCCCN3C(=O)OC[C@H]3C(C)(C)S)ccc2c1 | 118
61 | N#Cc1cccc(-n2c(=O)c(N3CCCCCC3)cc3cccnc32)c1 | 215 to 217
62 | COC1C(CO)OC(n2cnc3c(N)ncnc32)C1(C)O (stereo not given) | 180
63 | O=C(O)C(=O)c1cnsc1 | 145 to 148
64 | COc1cc(-c2cnc3[nH]cc(C(=O)C(C)(C)OC)c3n2)cc(OC)c1OC | 238 to 239
65 | COc1cc(Cl)cc(CC#N)c1Cl | 53 to 57
66 | CC(C)Nc1nc(Cl)nc(NCCS)n1 | 141 to 146
67 | CC1(COc2ccc([N+](=O)[O-])cc2)CC(O)c2cc(O)c(C(C)(C)C)cc2O1 (stereo not given) | 194 to 201
68 | CCC(CC)(CCCS(N)(=O)=O)COc1nn2ccnc2cc1C | 139 to 140
69 | Brc1cccc(Br)c1OC1C=CC(Oc2c(Br)cccc2Br)C1 (stereo not given) | 205 to 206
70 | CCOC(=O)C(=O)Nc1cccc(NC(=O)C(=O)OCC)c1 | 150
71 | CCCC1=C(C(=O)OCC)C(c2cccc(OC)c2OC)c2c[nH]nc2N1 (stereo not given) | 205 to 206
72 | C#CCOc1cc(C=O)cc(Cl)c1OCC#C | 64 to 65
73 | CCCCCCCCNP(N)(N)=O | 102 to 114
74 | CCOC(=O)c1ccc(N)cc1F | 110 to 112
75 | C[C@H]1Cc2c(Cl)c(Cl)cc3c(=O)c(C(=O)O)cn1c23 | 268 to 270
76 | N=C1CCCN1Cc1ccc(Cl)nc1 | 166
77 | O=[N+]([O-])c1cc([N+](=O)[O-])c(N2CCSCC2)c(C(F)(F)F)c1 | 120 to 121
78 | Cc1cc(N)cc(C)c1Oc1ccc(O)c(C(C)C)c1 | 180 to 181

Row | Compound | melting point [°C]
79 | CC(C)(C)OC(=O)NC1CCN(c2nc3c(cc2F)c(=O)n(N)c(=O)n3C2CC2)C1 (stereo not given) | 108 to 110
80 | O=[N+]([O-])c1ccc(OCc2nnco2)cc1 | 125 to 126
81 | CCS(=O)(=O)Nc1cc(C2CCCCC2)cc2c1CCCC2c1c[nH]cn1 (stereo not given) | 207 to 209
82 | CC(C)(C)c1ccc(C#N)cc1[N+](=O)[O-] | 70.5 to 71.5
83 | Cc1oc(C=Cc2cccc(C(F)(F)F)c2)nc1C(=O)O | 204 to 205
84 | CCOC(=O)c1cn(C2CC2)c2c(F)c(N3CC(O)C3)c(F)cc2c1=O | 260 to 270
85 | C[C@@H](NC(=O)c1c[nH]c2ncc(-c3nn(C)c4cc(F)ccc34)nc12)C(=O)N1CC(C#N)C1 | 270 to 277
86 | Cc1nc2c(O)cccn2c(=O)c1CCN1CCC(c2noc3cc(F)ccc23)CC1 | 288
87 | O=C(O)/C=C1\CCc2c(Cl)cc(F)cc21 | 229 to 230
88 | CC(C)(C)c1cc(C(=O)OCCC(=O)Oc2ccc(Cl)c([N+](=O)[O-])c2)cc(C(C)(C)C)c1O | 106 to 108
89 | CC(C)C(O)(C#C[Si](C)(C)C)c1cncnc1 (stereo not given) | 117
90 | COCCOc1cc(C(F)(F)F)cnc1-c1nc(C)c(-c2ccnc(Nc3ccc(N4CCOCC4)cc3)n2)s1 | 175 to 178
91 | CS(=O)(=O)Nn1c(=O)[nH]c2cc(C(F)(F)F)c(N3CCC3)cc2c1=O | 266 to 283
92 | CCCCCS(=O)(=O)NC(=O)CCc1cc(OC(C)C)nn1Cc1ccc(F)cc1F | 107 to 108
93 | CC(=O)NC[C@H]1CN(c2ccc(N3CCC(O)(C[N+](=O)[O-])CC3)c(F)c2)C(=O)O1 | 186 to 187
94 | NCC1Cc2cc(F)cc(-c3ccc(Cl)cc3Cl)c2O1 (stereo not given) | 107 to 109
95 | CCN1c2ncc(CNc3cccc([N+](=O)[O-])c3)cc2C(=O)N(C)c2ccc(Cl)nc21 | 171 to 172
96 | CC(c1ccc(C(F)(F)F)nc1)S(C)=NC#N (stereo not given) | 78 to 80
97 | CNc1ncnc2c1c(-c1ccc([N+](=O)[O-])o1)nn2C | 280
98 | O=C1N(CCCO)c2ccccc2C12COc1cc3c(cc12)OCCO3 (stereo not given) | 157 to 158
99 | CCOc1ccc(N2CCN(c3c(C)c4c(c(OC)c3C)OC(C)(C)C4)CC2)cc1 | 152 to 154
100 | CCOC(=O)Nc1cc(OC(C)C)c(Cl)cc1F | 89 to 91
